# Experimental data reported in patent EP4610269A1, “UROKINASE PLASMINOGEN ACTIVATOR SURFACE RECEPTOR (UPAR) LIGANDS FOR DIAGNOSTIC OR THERAPEUTIC USE” (3B Pharmaceuticals GmbH, priority 2024, dated 2025).
# Where two headings read alike, the source gives them in different places. Where a SMILES comes first, the peptide text is derived from it. Bridges are numbered along the chain shown (N, C = ends). [ ]: non-standard residue; d: D form. The star is where a group is joined. DOTA = O=C(O)CN1CCN(CC(=O)O)CCN(CC(=O)*)CCN(CC(=O)O)CC1; Pro(trans-4-F) = O=C(O)[C@@H]1C[C@@H](F)CN1; Pro(cis-4-F) = O=C(O)[C@@H]1C[C@H](F)CN1; Pentanesulfonyl = CCCCCS(=O)(=O)*; Hyp = O=C(O)[C@@H]1C[C@@H](O)CN1; hPhe = N[C@@H](CCc1ccccc1)C(=O)O; 3Pal = N[C@@H](Cc1cccnc1)C(=O)O; 4Pal = N[C@@H](Cc1ccncc1)C(=O)O; Pentanoyl(4-Me) = CC(C)CCC(=O)*; Tic = O=C(O)[C@@H]1Cc2ccccc2CN1; Cit = NC(=O)NCCC[C@H](N)C(=O)O; Butoxycarbonyl = CCCCOC(=O)*; Nva = CCC[C@H](N)C(=O)O; Hexanoyl = CCCCCC(=O)*; Pentanoyl = CCCCC(=O)*; Bz = O=C(c1ccccc1)*
# Tests used:
# [1] = biological target: T1, uPAR-expressing HEC-265 human endometrial adenocarcinoma cells (Homo sapiens, UniProt Q03405); test: Competitive FACS binding assay; details: pIC50 category of FACS binding
# T1 construct: Cell surface uPAR-expressing HEC-265 human endometrial adenocarcinoma cells; host or cells: HEC-265
# In short: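 Competitive displacement of a 10 nM biotinylated peptide from HEC-265 cells (1 h, 4 °C, PBS/1% BSA), detected via APC-streptavidin by flow cytometry. pIC50 from four-parameter logistic fit of median fluorescence versus concentration.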
# human uPAR (uPAR-Fc) = biological target: T2, human uPAR (uPAR-Fc) (Homo sapiens, UniProt Q03405); test: Surface plasmon resonance (SPR) assay, single cycle kinetics; assay type: binding; details: pKD category for uPAR SPR activity assay, uPAR-Fc on Protein A-Chip, 25°C; for Kd: read-out: pKD CAT (converted)
# T2 construct: comprising amino acids Leu23-Arg303 according to UniProt entry Q03405.1; purchased R&D Systems 10378-UK-100
# In short: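 uPAR-Fc (Leu23-Arg303 extracellular domains, human IgG1 Fc) captured on Protein A chip to ~2000 RU; single-cycle kinetics at 25°C in HEPES running buffer pH 7.4 with 0.1% DMSO. KD from double-referenced sensorgrams fitted to 1:1 Langmuir model, reported as pKD.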
# T1 sequence (Q03405 23-335): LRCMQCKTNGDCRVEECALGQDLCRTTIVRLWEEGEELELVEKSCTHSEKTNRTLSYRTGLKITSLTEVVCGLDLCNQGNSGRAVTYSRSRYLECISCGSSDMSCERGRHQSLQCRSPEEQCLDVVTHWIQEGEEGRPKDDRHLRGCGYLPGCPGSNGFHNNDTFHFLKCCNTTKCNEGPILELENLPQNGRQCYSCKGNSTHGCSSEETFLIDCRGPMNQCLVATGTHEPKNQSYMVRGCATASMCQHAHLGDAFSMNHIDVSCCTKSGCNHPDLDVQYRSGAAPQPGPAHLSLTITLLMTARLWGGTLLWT
# T2 sequence (Q03405 23-303): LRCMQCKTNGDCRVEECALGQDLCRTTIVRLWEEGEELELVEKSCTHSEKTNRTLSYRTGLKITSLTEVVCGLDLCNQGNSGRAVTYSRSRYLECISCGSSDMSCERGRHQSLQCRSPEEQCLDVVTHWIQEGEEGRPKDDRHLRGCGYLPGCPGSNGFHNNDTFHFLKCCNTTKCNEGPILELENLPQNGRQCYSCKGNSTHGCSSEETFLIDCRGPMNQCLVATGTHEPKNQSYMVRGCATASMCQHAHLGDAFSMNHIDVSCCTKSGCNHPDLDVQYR
Compound,IC50 [1],Kd (human uPAR (uPAR-Fc)),Kd (human uPAR (uPAR-Fc); single cycle kinetics),pIC50 CAT [1],pKD CAT (human uPAR (uPAR-Fc); single cycle kinetics)
"CCCCOC(=O)N[C@H]1CSSC[C@@H](C(N)=O)NC(=O)[C@H](CCC)NC(=O)[C@H]([C@@H](C)CC)NC(=O)[C@@H]2C[C@@H](O)CN2C(=O)[C@@H]2C[C@H](F)CN2C(=O)[C@H](Cc2ccccc2)NC(=O)[C@H](Cc2ccc(O)cc2)NC(=O)[C@H](CCCCNC(=O)CN2CCN(CC(=O)O)CCN(CC(=O)O)CCN(CC(=O)O)CC2)NC(=O)[C@H]([C@@H](C)O)NC1=O [UPAR-237, Butoc-[Cys-Thr-Lys(DOTA)-Tyr-Phe-4Cfp-Hyp-Ile-Nva-Cys]-NH2] (Butoxycarbonyl-CTK(DOTA)YF[Pro(cis-4-F)][Hyp]I[Nva]C-NH2; disulfide 1-10)",≤ 10 nM,< 1.58 nM,–,–,–
"CC[C@H](C)[C@@H]1NC(=O)[C@@H](C)NC(=O)[C@@H]2CCCN2C(=O)[C@H](CCc2ccccc2)NC(=O)[C@H](Cc2ccc(O)cc2)NC(=O)[C@H](CCC(N)=O)NC(=O)[C@H](CCCNC(N)=O)NC(=O)[C@@H](NC(=O)CCC(C)C)CSSC[C@@H](C(N)=O)NC(=O)[C@H](CC(C)C)NC1=O [UPAR-180, iHex-[Cys-Cit-Gln-Tyr-Hfe-Pro-ala-Ile-Leu-Cys]-NH2] ({Pentanoyl(4-Me)}-C[Cit]QY[hPhe]P[dA]ILC-NH2; disulfide 1-10)",≥ 126 nM,> 100 nM,–,–,–
"CCCCC(=O)N[C@H]1CSSC[C@@H](C(N)=O)NC(=O)[C@H](CCC)NC(=O)[C@H]([C@@H](C)CC)NC(=O)[C@@H]2C[C@@H](O)CN2C(=O)[C@@H]2CCCN2C(=O)[C@H](Cc2ccccc2)NC(=O)[C@H](Cc2ccc(O)cc2)NC(=O)[C@H](CCC(N)=O)NC(=O)[C@@H]2CCCN2C1=O [UPAR-361, Pent-[Cys-Pro-Gln-Tyr-Phe-Pro-Hyp-Ile-Nva-Cys]-NH2] (Pentanoyl-CPQYFP[Hyp]I[Nva]C-NH2; disulfide 1-10)",≤ 10 nM,–,< 1.58 nM,–,–
"CCCCCC(=O)N[C@@H](CC(=O)O)C(=O)N[C@@H](CC(C)C)C(=O)N[C@H]1CSSC[C@@H](C(N)=O)NC(=O)[C@H](CC(C)C)NC(=O)[C@H]([C@@H](C)CC)NC(=O)[C@H](C)NC(=O)[C@@H]2CCCN2C(=O)[C@H](Cc2ccccc2)NC(=O)[C@H](Cc2ccc(O)cc2)NC(=O)[C@H](CCSC)NC(=O)[C@H](CCCCNC(=O)CN2CCN(CC(=O)O)CCN(CC(=O)O)CCN(CC(=O)O)CC2)NC1=O [UPAR-235, Hex-Asp-Leu-[Cys-Lys(DOTA)-Met-Tyr-Phe-Pro-Ala-Ile-Leu-Cys]-NH2] (Hexanoyl-DLCK(DOTA)MYFPAILC-NH2; disulfide 3-12)",≤ 10 nM,< 1.58 nM,–,–,–
"CCCCC(=O)N[C@H]1CSSC[C@@H](C(N)=O)NC(=O)[C@H](CCC)NC(=O)[C@H]([C@@H](C)CC)NC(=O)[C@@H]2C[C@@H](O)CN2C(=O)[C@@H]2CCCN2C(=O)[C@H](Cc2ccncc2)NC(=O)[C@H](Cc2ccc(O)cc2)NC(=O)[C@H](CCCCNC(=O)CN2CCN(CC(=O)O)CCN(CC(=O)O)CCN(CC(=O)O)CC2)NC(=O)[C@H](CCCNC(N)=O)NC1=O [UPAR-222, Pent-[Cys-Cit-Lys(DOTA)-Tyr-Ppa-Pro-Hyp-Ile-Nva-Cys]-NH2] (Pentanoyl-C[Cit]K(DOTA)Y[4Pal]P[Hyp]I[Nva]C-NH2; disulfide 1-10)",≤ 10 nM,1.58 to 10 nM,–,–,–
"CCCCC(=O)N[C@H]1CSSC[C@@H](C(N)=O)NC(=O)[C@H](CCC)NC(=O)[C@H]([C@@H](C)CC)NC(=O)[C@@H]2C[C@@H](O)CN2C(=O)[C@@H]2CCCN2C(=O)[C@@H]2Cc3ccccc3CN2C(=O)[C@H](Cc2ccc(O)cc2)NC(=O)[C@H](CCCCNC(=O)CN2CCN(CC(=O)O)CCN(CC(=O)O)CCN(CC(=O)O)CC2)NC(=O)[C@H](CCCNC(N)=O)NC1=O [UPAR-252, Pent-[Cys-Cit-Lys(DOTA)-Tyr-Tic-Pro-Hyp-Ile-Nva-Cys]-NH2] (Pentanoyl-C[Cit]K(DOTA)Y[Tic]P[Hyp]I[Nva]C-NH2; disulfide 1-10)",≥ 126 nM,> 100 nM,–,–,–
"CC[C@H](C)[C@@H]1NC(=O)[C@@H](C)NC(=O)[C@@H]2CCCN2C(=O)[C@H](Cc2ccccc2)NC(=O)[C@H](Cc2ccc(O)cc2)NC(=O)[C@H](CCC(=O)O)NC(=O)[C@H](CCCNC(N)=O)NC(=O)[C@@H](NC(=O)CCC(C)C)CSSC[C@@H](C(N)=O)NC(=O)[C@H](CC(C)C)NC1=O [UPAR-255, iHex-[Cys-Cit-Glu-Tyr-Phe-Pro-ala-Ile-Leu-Cys]-NH2] ({Pentanoyl(4-Me)}-C[Cit]EYFP[dA]ILC-NH2; disulfide 1-10)",≤ 10 nM,< 1.58 nM,–,–,–
"CCCCC(=O)N[C@H]1CSSC[C@@H](C(N)=O)NC(=O)[C@H](CCC)NC(=O)[C@H]([C@@H](C)CC)NC(=O)[C@@H]2C[C@@H](O)CN2C(=O)[C@@H]2CCCN2C(=O)[C@H](Cc2ccccc2)NC(=O)[C@H](Cc2ccc(O)cc2)NC(=O)[C@H](CCCCNC(=O)CN2CCN(CC(=O)O)CCN(CC(=O)O)CCN(CC(=O)O)CC2)NC(=O)[C@H](CCCNC(=O)CCCC(=O)NCCOCCOCCOCCOCCC(=O)NC(COCCC(=O)NCCOCCOCCOCCOCCOCCOCCOCCOCCOCCOCCOCCOC)(COCCC(=O)NCCOCCOCCOCCOCCOCCOCCOCCOCCOCCOCCOCCOC)COCCC(=O)NCCOCCOCCOCCOCCOCCOCCOCCOCCOCCOCCOCCOC)NC1=O [UPAR-247, Pent-[Cys-Orn(TrisPEG)-Lys(DOTA)-Tyr-Phe-Pro-Hyp-Ile-Nva-Cys]-NH2]",12.6 to 31.6 nM,10 to 100 nM,–,–,–
"CCCCC(=O)N[C@H]1CSSC[C@@H](C(N)=O)NC(=O)[C@H](CCC)NC(=O)[C@H]([C@@H](C)CC)NC(=O)[C@@H]2C[C@@H](O)CN2C(=O)[C@@H]2CCCN2C(=O)[C@H](Cc2ccccc2)NC(=O)[C@H](Cc2ccc(O)cc2)NC(=O)[C@H](CCCCNC(=O)CN2CCN(CC(=O)O)CCN(CC(=O)O)CCN(CC(=O)O)CC2)NC(=O)[C@H](CC(N)=O)NC1=O [UPAR-283, Pent-[Cys-Asn-Lys(DOTA)-Tyr-Phe-Pro-Hyp-Ile-Nva-Cys]-NH2] (Pentanoyl-CNK(DOTA)YFP[Hyp]I[Nva]C-NH2; disulfide 1-10)",≤ 10 nM,< 1.58 nM,–,–,–
"CCCCC(=O)N[C@H]1CSSC[C@@H](C(N)=O)NC(=O)[C@H](CCC)NC(=O)[C@H]([C@@H](C)CC)NC(=O)[C@@H]2C[C@@H](F)CN2C(=O)[C@@H]2CCCN2C(=O)[C@H](Cc2cccnc2)NC(=O)[C@H](Cc2ccc(O)cc2)NC(=O)[C@H](CCCCNC(=O)CN2CCN(CC(=O)O)CCN(CC(=O)O)CCN(CC(=O)O)CC2)NC(=O)[C@H](CCCNC(N)=O)NC1=O [UPAR-207, Pent-[Cys-Cit-Lys(DOTA)-Tyr-Mpa-Pro-4Tfp-Ile-Nva-Cys]-NH2] (Pentanoyl-C[Cit]K(DOTA)Y[3Pal]P[Pro(trans-4-F)]I[Nva]C-NH2; disulfide 1-10)",≤ 10 nM,1.58 to 10 nM,–,–,–
"CCCCC(=O)N[C@H]1CSSC[C@@H](C(N)=O)NC(=O)[C@H](CCC)NC(=O)[C@H]([C@@H](C)CC)NC(=O)[C@@H]2C[C@@H](O)CN2C(=O)[C@H](CCCCN)NC(=O)[C@H](Cc2ccccc2)NC(=O)[C@H](Cc2ccc(O)cc2)NC(=O)[C@H](CCC(N)=O)NC(=O)[C@H](CCCNC(=N)N)NC1=O [UPAR-298, Pent-[Cys-Arg-Gln-Tyr-Phe-Lys-Hyp-Ile-Nva-Cys]-NH2] (Pentanoyl-CRQYFK[Hyp]I[Nva]C-NH2; disulfide 1-10)",39.8 to 100 nM,10 to 100 nM,–,–,–
"CCCCCS(=O)(=O)N[C@H]1CSSC[C@@H](C(N)=O)NC(=O)[C@H](CCC)NC(=O)[C@H]([C@@H](C)CC)NC(=O)[C@@H]2C[C@@H](O)CN2C(=O)[C@@H]2CCCN2C(=O)[C@H](Cc2ccccc2)NC(=O)[C@H](Cc2ccc(O)cc2)NC(=O)[C@H](CCC(N)=O)NC(=O)[C@H](CCCNC(=N)N)NC1=O [UPAR-328, PentylSO2-[Cys-Arg-Gln-Tyr-Phe-Pro-Hyp-Ile-Nva-Cys]-NH2] (Pentanesulfonyl-CRQYFP[Hyp]I[Nva]C-NH2; disulfide 1-10)",≤ 10 nM,< 1.58 nM,–,–,–
Succinyl-Nva-[Cys-Cit-Lys(GdDOTA)-Tyr-Phe-Pro-Hyp-Ile-Nva-Cys]-NH2 [UPAR-460],–,–,–,A (pIC50 values ≥8.0),A (pKD values ≥ 8.8)
"CC[C@H](C)[C@@H]1NC(=O)[C@@H]2C[C@@H](O)CN2C(=O)[C@@H]2CCCN2C(=O)[C@H](Cc2ccccc2)NC(=O)[C@H](Cc2ccc(O)cc2)NC(=O)[C@H](CC(=O)O)NC(=O)[C@H](CCCNC(=N)N)NC(=O)[C@@H](NC(=O)CCC(C)C)CSSC[C@@H](C(N)=O)NC(=O)[C@H](CC(C)C)NC1=O [UPAR-458, iHex-[Cys-Arg-Asp-Tyr-Phe-Pro-Hyp-Ile-Leu-Cys]-NHz] ({Pentanoyl(4-Me)}-CRDYFP[Hyp]ILC-NH2; disulfide 1-10)",≤ 10 nM,–,< 1.58 nM,–,–
"CCC[C@@H]1NC(=O)[C@H]([C@@H](C)CC)NC(=O)[C@@H]2C[C@@H](O)CN2C(=O)[C@@H]2CCCN2C(=O)[C@H](Cc2ccccc2)NC(=O)[C@H](Cc2ccc(O)cc2)NC(=O)[C@H](CCC(N)=O)NC(=O)[C@H](CCCNC(=N)N)NC(=O)[C@@H](NC(=O)c2ccccc2)CSSC[C@@H](C(N)=O)NC1=O [UPAR-356, Bz-[Cys-Arg-Gln-Tyr-Phe-Pro-Hyp-Ile-Nva-Cys]-NH2] (Bz-CRQYFP[Hyp]I[Nva]C-NH2; disulfide 1-10)",≤ 10 nM,–,< 1.58 nM,–,–
Pent-[Cys-Cit-Lys(LuDOTA)-Nif-Phe-Pro-Hyp-Ile-Nva-Cys]-NH2 [UPAR-352],–,–,–,A (pIC50 values ≥8.0),A (pKD values ≥ 8.8)
